Where two headings read alike, the source gives them in different places.

Experimental findings from patent US8129106B2, “Sequence-specific detection of methylation in biomolecules” (priority 2004, dated 2012) are described below.

Experiment [1] addresses T1, M.HhaI (Haemophilus parahaemolyticus, UniProt P05102). The experiment in a line: M.HhaI-catalysed coupling of biotinylated aziridine cofactors with duplex oligodeoxynucleotide I-II (anion exchange HPLC). It is filed as biochemical, Haemophilus haemolyticus. The note with it: for conversion of duplex I-II to coupling product (protein-DNA complex): cofactor 80 μM, duplex I-II 10 μM, M.HhaI 11 μM, 37° C., after 3 h (1), 1.5 h (2), 6.25 h (3). How it is done:
Solutions (400 μL) of aziridine cofactor 1, 2 or 3 (32 nmol, 80 μM), duplex oligodeoxynucleotide I-II (4 nmol, 10 μM) and M.HhaI (4.4 nmol, 11 μM) in buffer (10 mM Tris hydrochloride, pH 7.4, 50 mM sodium chloride, 0.05 mM ethylene-diaminetetraacetic acid and 2 mM β-mercaptoethanol) were incubated at 37° C. The progress of the coupling reactions was monitored by anion exchange HPLC (Poros 10 HQ, 10 μm, 4.6×10 mm, Applied Biosystems). Compounds were eluted with aqueous potassium chloride (0.2 M for 5 min, followed by linear gradients to 0.4 M in 5 min, to 0.6 M in 20 min and to 1 M in 5 min) in Tris hydrochloride buffer (10 mM, pH 7.6) at a flow of 4 mL/min. […] These new compounds are assigned to non-covalent protein-DNA complexes between M.HhaI and the coupling products I^1-II, I^2-II and I^3-II based on their UV absorption ratio at 260 nm and 280 nm.
The presence and functionality of biotin groups in I^1-II, I^2-II and I^3-II were verified by addition of streptavidin. Residual aziridine cofactors 1, 2 or 3 were first removed from the labelled duplexes I^1-II, I^2-II or I^3-II by gel filtration using NAP-5 columns (Amersham Biosciences, Freiburg, Germany) according to the instructions of the supplier. Afterwards, streptavidin (25 μg) was added to the solutions (25 μL, 0.25 nmol I^1-II, I^2-II or I^3-II) and incubation was performed at 37° C. for 30 min.

For experiment [2], the target named is T2, M.SssI (Spiroplasma monobiae, UniProt P15840).
T2 construct: made in house; host or cells: Escherichia coli
T2 sequence (P15840 whole entry): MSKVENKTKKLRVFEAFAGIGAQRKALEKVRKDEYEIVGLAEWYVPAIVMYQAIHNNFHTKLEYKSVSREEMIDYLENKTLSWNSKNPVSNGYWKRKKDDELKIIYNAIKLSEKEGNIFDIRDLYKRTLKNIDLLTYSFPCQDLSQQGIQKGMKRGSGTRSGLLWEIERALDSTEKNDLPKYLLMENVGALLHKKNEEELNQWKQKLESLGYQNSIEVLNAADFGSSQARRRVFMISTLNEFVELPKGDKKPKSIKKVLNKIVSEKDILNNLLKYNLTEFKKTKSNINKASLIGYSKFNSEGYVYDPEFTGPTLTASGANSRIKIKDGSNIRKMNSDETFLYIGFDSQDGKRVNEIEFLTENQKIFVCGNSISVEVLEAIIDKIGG
The experiment in a line: M.SssI-catalysed coupling of aziridine cofactors with duplex oligodeoxynucleotides (anion exchange HPLC). It is filed as biochemical. How it is done: M.SssI-mediated conversion of 6BAz was studied by using a duplex-oligodeoxynucleotide and purified DNA-methyl-transferase. After adjusting and optimizing the reaction conditions (pH and composition of the puffers, temperature, amount of M.SssI) 60% of a hemi-methylated duplex-oligodeoxynucleotide was labelled in a 2 h reaction. When unmethylated duplex-oligodeoxynucleotides were used, approximately 100% was labelled. These diverging results may be due to the presence of minor amounts of natural cofactor AdoMet in the enzyme preparation.
Solutions of hemi-methylated duplex oligodeoxynucleotide I-II (1 μM, I=5′-[…]-3′ (SEQ ID NO:1), II=5′-[…]-3′ with M=5-methyl-2′-deoxycytidine (SEQ ID NO:2)) or non-methylated duplex oligodeoxynucleotide I-III (1 μM, I=5′-[…]-3′ (SEQ ID NO:1), III=5′-[…]-3′ (SEQ ID NO:3)), aziridine cofactor 3 (100 μM) and M.SssI (2 μM) in buffer (10 mM Tris hydrochloride, pH 7.4, 50 mM sodium chloride, 10 mM ethylenediaminetetraacetic acid and 2 mM dithiothreitol) were incubated at 21° C. The progress of the coupling reactions was monitored by anion exchange HPLC (Poros 10 HQ, 10 μm, 4.6×100 mm, Applied Biosystems). Compounds were eluted with aqueous potassium chloride (0.2 M for 5 min, followed by linear gradients to 0.5 M in 5 min and to 1 M in 30 min) in Tris hydrochloride buffer (10 mM, pH 7.6) supplemented with sodium azide (1 mM) at a flow of 4 mL/min.

Experiment [3] deals with T1, M.HhaI. The experiment in a line: Methylation-sensitive biotinylation of linearized pUC19 plasmid DNA with M.HhaI (R.HhaI protection, streptavidin mobility shift). It is filed as biochemical, Haemophilus haemolyticus. The note with it: cofactor 80 μM, 37° C. for 2 h, non- vs CpG-methylated LpUC19. How it is done: The reaction with aziridine cofactor 1 and M.HhaI was used to specifically detect DNA methylation of plasmid DNA (FIG. 2). Experiments were performed with R.XmnI-linearized plasmid pUC19 DNA (LpUC19). Cytosine residues within the 5′-CG-3′ DNA sequences (CpG-motives) of LpUC19 were methylated using the DNA (cytosine-5)-methyltransferase M.SssI and the natural cofactor AdoMet. Non- and CpG-methylated LpUC19 were treated with biotinylated aziridine cofactor 1 and M.HhaI, which can only alkylate the first cytosine residue within the 5′-GCGC-3′ DNA sequence if this residue is not blocked by methylation of the inner CpG-motive. The different plasmids where then analyzed by treatment with the restriction endo-nuclease R.HhaI (5′-GCGC-3′ recognition sequence) or streptavidin (tight binding to the biotin group) leading to fragmentation, no reaction or an electrophoretic mobility shift (FIG. 2A). […]
Samples (10 μL) of unmodified (A.), methylated (B. or C.) or biotinylated (C.) LpUC19 plasmid DNA (200 ng) in buffer (10 mM Tris hydrochloride, pH 7.9, 10 mM magnesium chloride, 50 mM sodium chloride, 1 mM 1,4-dithiothreitol and 1 mg/mL bovine serum albumin) were incubated with R.HhaI (2 U) at 37° C. for 1 h. DNA fragmentation was analyzed by agarose gel electrophoresis (1% agarose gel). […]

T1 sequence (P05102 whole entry): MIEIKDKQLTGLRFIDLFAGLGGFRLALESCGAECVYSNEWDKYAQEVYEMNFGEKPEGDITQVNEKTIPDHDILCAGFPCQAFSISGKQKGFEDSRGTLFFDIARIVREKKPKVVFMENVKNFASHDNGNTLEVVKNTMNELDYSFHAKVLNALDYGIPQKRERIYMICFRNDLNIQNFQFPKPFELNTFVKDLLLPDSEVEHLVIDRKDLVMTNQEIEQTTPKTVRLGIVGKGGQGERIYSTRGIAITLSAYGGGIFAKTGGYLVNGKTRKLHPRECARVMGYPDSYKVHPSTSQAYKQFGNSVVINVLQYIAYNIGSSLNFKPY

As to “4-Amino-7-(5′-N-aziridinyl-5′-deoxy-β-D-ribofuranosyl)-5-[1″-(N″-biotinyl)-3″-aminoprop-1-ynyl]-7H-pyrrolo[2,3-d]pyrimidine [aziridine cofactor 2]”, in experiment [1], the “substrate for M.HhaI” value is given as “good substrates” and the “conversion of duplex I-II to coupling product (protein-DNA complex)” value (“conversion of duplex I-II” for short) is “almost complete conversion”.

For the substance “5′-N-Aziridinyl-N6-[1″-(N″-biotinyl)-4″-aminobutyl]-5′-deoxyadenosine [aziridine cofactor 3]”, in experiment [1], the “substrate for M.HhaI” value is given as “good substrates” and the “conversion of duplex I-II” value is reported as “almost complete conversion”. For the same substance, the “cofactor use by M.SssI (transfer onto DNA)” value in experiment [2] is “substrate for M.SssI”. Also, the hemi-methylated duplex-oligodeoxynucleotide labelled in experiment [2] (M.SssI, 2 h reaction, optimized conditions) is on record as 60%. For the same substance, the unmethylated duplex-oligodeoxynucleotide labelled entry in experiment [2] (M.SssI, optimized conditions) was “approximately 100%”. Besides, the “conversion of non-methylated duplex I-III to protein-DNA complexes with coupling product” value in experiment [2] (duplex I-III 1 μM, cofactor 100 μM, M.SssI 2 μM, 21° C., 3 h incubation) was “almost complete conversion”. Moreover, the “conversion of starting duplex I-II to product duplex I^3-II” value in experiment [2] (hemi-methylated duplex I-II 1 μM, cofactor 100 μM, M.SssI 2 μM, 21° C., 3 h) is “about 60%”. In experiment [2] (listed as 6BAz), the “cofactor use by M.SssI (transfer onto DNA)” value is given as “aziridin-cofactor for the DNA-MTase M.SssI”.

As for “4-Amino-7-(5′-N-aziridinyl-5′-deoxy-β-D-ribofuranosyl)-5-[1″-(N″-biotinyl)-3″-aminopropyl]-7H-pyrrolo[2,3-d]pyrimidine [aziridine cofactor 1]”, in experiment [1], the “substrate for M.HhaI” value is recorded as “good substrates” and the “conversion of duplex I-II” value was “almost complete conversion”. In addition, the “labelling reaction of LpUC19 plasmid DNA with M.HhaI” value in experiment [3] was “sequence-specific and blocked by CpG-methylation”.
